This experiment deals with T1, Ubiquitin carboxyl-terminal hydrolase 30 (Homo sapiens, UniProt Q70CQ3).
T1 sequence (Q70CQ3 whole entry): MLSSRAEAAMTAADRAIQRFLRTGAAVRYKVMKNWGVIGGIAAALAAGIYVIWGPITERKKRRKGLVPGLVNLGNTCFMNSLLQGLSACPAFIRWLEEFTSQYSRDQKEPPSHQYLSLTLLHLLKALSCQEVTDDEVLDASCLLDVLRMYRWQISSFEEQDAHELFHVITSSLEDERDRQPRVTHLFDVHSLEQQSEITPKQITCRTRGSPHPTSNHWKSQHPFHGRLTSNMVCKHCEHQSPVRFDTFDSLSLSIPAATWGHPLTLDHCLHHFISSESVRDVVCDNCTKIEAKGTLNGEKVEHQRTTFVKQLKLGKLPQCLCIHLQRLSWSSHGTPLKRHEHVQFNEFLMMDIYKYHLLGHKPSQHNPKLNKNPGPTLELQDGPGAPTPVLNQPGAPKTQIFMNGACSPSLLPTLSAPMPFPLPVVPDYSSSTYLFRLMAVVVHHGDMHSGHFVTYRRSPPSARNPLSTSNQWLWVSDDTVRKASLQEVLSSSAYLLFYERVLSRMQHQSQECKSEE
In words: USP30 Biochemical IC50 Assay. Here is the method:
Dilution plates were prepared at 21 times the final concentration (2100 µM for a final concentration of 100 µM) in 50% DMSO in a 96-well polypropylene V-bottom plate (Greiner #651201). A typical 8-point dilution series would be 100, 30, 10, 3, 1, 0.3, 0.1, 0.03 µM final. Reactions were performed in duplicate in black 384 well plates (small volume, Greiner 784076) in a final reaction volume of 21 µl. Either 1 µl of 50% DMSO or diluted compound was added to the plate. USP30 (Boston Biochem #E582) was diluted in reaction buffer (40 mM Tris, pH 7.5, 0.005% Tween 20, 0.5 mg/ml BSA, 5 mM beta-mercaptoethanol) to achieve a final assay concentration of 4 nM, and 10 µl of diluted USP30 was added to the compound. Enzyme and compound were incubated for 30 min at room temp. Reactions were initiated by the addition of 50 nM of TAMRA labelled peptide linked to ubiquitin via an iso-peptide bond as fluorescence polarisation substrate. Reactions were read immediately after addition of substrate and following a 2-hour incubation at room temperature. Readings were performed on a Pherastar Plus (BMG Labtech). λ Excitation 540 nm; λ Emission 590 nm.

What is called IC50 is the concentration that inhibits the measured activity by half. The low end stands for higher potency, the high end for lower potency.

With `COC[C@@H]1C[C@@H](NC(=O)c2ncc(-c3cc(C#N)ccc3OC3CC3)o2)CN1C#N` [US20230303547, Example 2], inhibition was half-maximal at 3 nM (IC50). Under `N#Cc1ccc(OC2CC2)c(-c2cnc(C(=O)N[C@@H]3C[C@@H](CF)N(C#N)C3)o2)c1` [US20230303547, Example 3] stands 1 nM; under `C[C@@H]1C[C@@H](NC(=O)c2ncc(-c3cc(C#N)ccc3OC3CC3)o2)CN1C#N` [US20230303547, Example 1], 3 nM. `COc1ccc(C#N)cc1-c1cnc(C(=O)N[C@@H]2C[C@@H](C)N(C#N)C2)o1` [US20230303547, Example 4] displayed an IC50 of 2 nM.

The values are drawn from BindingDB's records for patent US20230303547 (Mission Therapeutics, 2023).
